Test results: US12265087B2, “Olfactory receptor as microglia marker and use thereof” (DAEGU GYEONGBUK INSTITUTE OF SCIENCE AND TECHNOLOGY, priority 2019, dated 2025)

Assays:
microglia = test: GFP intensity / morphology of microglia in CX3CR1 GFP/+ mice; format: in vivo, mouse; conditions: 2-PF treated CX3CR1 GFP/+ mice
Experimental: To analyze a morphological change in microglia activation, 9-week-old CX3CR1^GFP/+ mice were used. Two hours after an IP containing or not containing 2-PF was injected into two mice, brain sections were collected by cryosection. A 40-μm-thick brain tissue fragment was prepared by […], and a GFP signal of microglia was measured using a 40× magnification confocal microscope. A GFP-pixel signal of microglia was analyzed using Zeiss ZEN Software (Zeiss).

Olfr110 = test: Immunostaining of Olfr110 expression after treatment; format: cell-based, mouse
Experimental: Subsequently, cells were washed in PBS, and fixed with 4% paraformaldehyde (#6148; Sigma Aldrich) for 5 minutes. The cells were then incubated in PBS containing 4% normal horse serum (#008-000-121; Jackson ImmunoResearch) and 0.1% TWEEN® 20 (#P9416; Sigma-Aldrich) at room temperature for 1 hour. Afterward, the cells were […] at 4° C. overnight with primary antibodies listed below. The antibodies are as follows: Olfr110 (rabbit-anti-Olfr110; 1:10,000; #ab177327; Abcam), Iba-1 (goat-anti-Iba-1; 1:1,000; #ab5076; Abcam), and GFAP (mouse-anti-GFAP; 1:1,000; #556330; BD Biosciences). Samples were incubated in a PBS solution containing 0.1% TWEEN® 20 (#P9416; Sigma-Aldrich) with secondary antibodies at room temperature for 1 hour. The secondary antibodies are as follows: Cy3-conjugated donkey anti-rabbit IgG (1:1,000; #711-165-152; Jackson ImmunoResearch), Alexa488-conjugated donkey anti-goat IgG (1:1,000; #705-545-147; Jackson ImmunoResearch), and Alexa488-conjugated donkey anti-mouse IgG (1:1,000; #715-545-150; Jackson ImmunoResearch). Afterward, the cells were mounted with a Vectashield fluorescent material containing DAPI (#H-1200; Vector Laboratories), and images were obtained using a confocal laser scanning microscope, LSM 700, and the ZEN software (Zeiss). […]

primary microglia = test: Western blotting of phosphorylated signaling proteins in primary microglia; format: cell-based, mouse; conditions: 0-30 min after treatment
Experimental: Cells and tissue were prepared using the T-PER® reagent (#78510; Thermo Fisher Scientific) containing protease inhibitors (#04-693-116-001; Roche Molecular Diagnostics) and DMSF (Sigma-Aldrich), and then lysed using a MagNA lyser (Roche Molecular Diagnostics). A total protein extract was quantified by the Bradford assay. The samples were dissolved in 7.5% SDS-PAGE or 4-20% gradient mini-PROTEIN TGX Precast Gels (#456-1064; Bio-Rad Laboratories), and then blotted on nitrocellulose membranes (#10600002; GE Healthcare). Afterward, the membranes were blocked for 1 hour in 5% non-fat dry milk and TBST, 0.1% TWEEN® 20 (#P9416; Sigma-Aldrich), and Tris-buffered saline, and then incubated with primary antibodies at 4° C. overnight. The antibodies were as follows: Olfr110 (36 kDa; 1:1,000; #ab177327; Abcam), anti-rhodopsin (39 kDa; 1:1,000; #MABN15; Millipore), CREB (43 kDa; 1:1,000; #9197; Cell Signaling Technology), phospho-CREB (43 kDa; 1:1,000; #9198; Cell Signaling Technology), ERK (44 kDa; 1:1,000; #sc094; Santa Cruz), phospho-ERK (42, 44 kDa; 1:1,000; #sc-7383; Santa Cruz), phospho-Akt (60 kDa; 1:500; sc-293125; Santa Cruz), phospho-JNK (46, 54 kDa; 1:500; sc-6254; Santa Cruz), phosphor-p38 (38 kDa; 1:1,000; sc-7973; Santa Cruz), and beta-Actin (45 kDa; 1:10,000; #4967; Cell Signaling Technology). In addition, as isotype-matched horseradish peroxidase-conjugated secondary antibodies, anti-rabbit IgG (#711-035-152; Jackson ImmunoResearch) diluted 1:100,000, and anti-mouse IgG (#715-035-150; Jackson ImmunoResearch) diluted 1:40,000 in TBST were used at room temperature for 2 hours. Immunoreactive protein bands were obtained using SuperSignal™ West Pico Chemiluminescent Substrate (#34080; Thermo Fisher Scientific).

Compound: CCCCCc1ccco1 [2-PF, 2-pentylfuran]
- intensity of GFP expression of microglia (microglia): highly increased
- Olfr110 protein level (Olfr110): significantly increases
- phosphorylation levels of ERK, p38, JNK and Akt (primary microglia): increased from 2 minutes and stopped increasing at 20 minutes
